These results are taken from patent US20090197957A1, “Methods and compositions for the treatment of pain” (Nuon Therapeutics, Inc., priority 2005, published 2009).

Values joined by “and” are separate entries in the source; they are usually repeats but may differ in a detail not shown here. Equal entries are not always repeated.

In general, % Inhibition refers to how much of the control response was suppressed. A high value points to a response far below the control.

The subject of experiment [1] is mechanical and thermal allodynia in CIA. Description: Allodynia assessment in arthritic mice (Plantar Von-Frey, Hargreaves test). The class given is in vivo. On the procedure: FIG. 6 is an image depicting that 3,4-DAA inhibits mechanical and thermal allodynia, and inhibits astrocytic activation in arthritic mice. Mechanical (a) and thermal (b) allodynia, and paw swelling (c) and clinical score (d) were assessed in naïve mice on the day of arthritis onset, and up to 10 days following therapy with 200 mg/kg 3,4-DAA, […] dexamethasone, or vehicle. […] Whilst 3,4-DAA therapy reduced astrocytic activation (bottom right panel) dexamethasone had no action on GFAP levels (bottom left panel). Quantification of the number of hyper-plastic astrocytes in the spinal cord 10 days following onset of arthritis was performed (f).
The pain thresholds of the mice were assessed prior to immunization (naïve) on day of onset (day 0) and up to 10 days following therapy with 3,4-DAA (200 mg/kg/day), dexamethasone (0.5 mg/kg/2 days) or vehicle alone (n=9 per group). The Ugo Basile 37400 Plantar Von-Frey microprocessor controlled unit was used to assess mechanical hyperalgesia and Ugo Basile 7370-6 Plantar Test (Hargreaves test) was used to assess thermal hyperalgesia. Mechanical hyperalgesia was assessed by applying an increasing force to the hind paw at the rate of 3 g/second, and measuring the force required to elicit lifting of the paw. Thermal hyperalgesia was assessed by applying an increasing infrared source (intensity 50), and measuring the time required for lifting of the paw.

The test system of another experiment is purified T cells. Description: T cell proliferation in vitro (anti-CD3/anti-CD28, 3H-thymidine incorporation). The class given is cell-based. Conditions: anti-CD3/anti-CD28 stimulation, 72 h; for IC50: T-cell, read-out: IC50 for inhibition of T cell proliferation; for T cell proliferation: varying doses. On the procedure:
(§1) FIG. 7 is a graphical representation depicting that 3,4-DAA and 3-HAA inhibit B and T cell proliferation in vitro. Purified B and T cells were stimulated for 72 h with anti-CD40 (a), or anti-CD3/anti-CD28 (b) respectively, in the presence of varying doses of 3,4-DAA, or 3-HAA.
(§2) A single cell suspension was prepared by pushing splenic tissue through a cell strainer, and erythrocytes were lysed using an ammonium chloride solution (Sigma, St Louis, Mo.). B cells were positively enriched by using anti-IgM microbeads (BD Pharmingen), and T cells were positively enriched using anti-CD4 MACS microbeads, according to the manufacturer's guidelines (Miltenyi Biotec, Bergisch Gladbach, Germany). Purity was assessed by flow cytometric analysis (B cell>90% CD19+, T cell>90% CD4+). Cells were cultured at 5×10^5 cells/ml in 200 μl complete RPMI, as above, in a flat bottom 96-well plate and cultured for 72 h. B cells were stimulated with anti-CD40 monoclonal antibody (10 μg/ml; BD), and T cells were stimulated with 5 μg/ml plate-bound anti-CD3 (ebiosciences) plus 5 μg/ml soluble anti-CD28 (ebiosciences). 3,4-DAA, 3-HAA, or vehicle (DMSO) was added at graded concentrations immediately prior to stimulation. 48 hours after stimulation, 100 μl culture medium was collected, and cells were pulsed with 1 μCi ^3H thymidine per well for 18 h. Cells were then harvested and plates assessed for thymidine incorporation. Each assay was performed on a minimum of 3 occasions. IFN-γ, IL-10 and IL-5 levels were assessed in the culture medium by ELISA, as above.
(§3) Activation of purified B (FIG. 7a) and T cells (FIG. 7b) was induced by anti-CD40, and anti-CD3/CD28 respectively, and proliferation was assessed by ^3H-thymidine incorporation. […] Inhibition of proliferation was also observed when B cells were stimulated with LPS or anti-IgM. […] It was concluded that the effects of 3,4-DAA and 3-HAA on T and B cells in vitro were remarkably similar, though not identical. It is of also note that 3-HAA had no action on inflammation or allodynia, when administered therapeutically in CIA at doses of up to 400 mg/kg/day.
In general terms: Uptake of a labelled nucleoside into DNA is a usual measure of proliferation.

The test system of the next experiment is T-cells. Description: Cytokine production by stimulated T cells in vitro (ELISA). The class given is cell-based. Conditions: anti-CD3/anti-CD28 stimulation, graded concentrations. On the procedure: as §1, §2, §3
(An ELISA detects its analyte on a solid surface through an enzyme-linked reagent.)

For experiment [2], the system named is acetic acid-induced writhing. Description: Analgesia, acetic acid writhing in mice (Assay #503900, Example 1). Conditions: for No. of Writhing Average: group of 5 mice; for % Inhibition: relative to vehicle control; for No. of Writhing Individual: single mice. The format is in vivo, mouse. On the procedure: Tranilast was evaluated for possible analgesic activity in the mouse acetic acid-induced writhing model. Tranilast at 100, 200 and 400 mg/kg was administered orally (PO) 1 hour before intraperitoneal injection of acetic acid (0.5%, 20 ml/kg).
Tranilast, provided by Angiogen Pharmaceuticals Pty. Ltd., was dissolved in 1% NaHCO3 (heated to 70° C.) and administered orally at doses of 100, 200 and 400 mg/kg at 60 minutes before acetic acid injection. The dosing volume was 10 ml/kg.
Male CD-1 (Crl.) derived mice weighing 24±2 g were provided by BioLasco Taiwan (under a Charles River Laboratories Technology licensee). Space allocation for 10 animals was 29×18×13 cm. Mice were housed in APEC^R cages. All animals were maintained in a controlled temperature (22° C.-24° C.) and humidity (60%-70%) environment with 12 hours light dark cycles for at least one week in MDS Pharma Services—Taiwan Laboratory prior to use. Free access to standard lab chow for mice (Lab Diet, Rodent Diet, PMI Nutrition International, USA) and tap water was granted. All aspects of this work including housing, experimentation and disposal of animals were performed in general accordance with the Guide for the Care and Use of Laboratory Animals (National Academy Press, Washington, D.C., 1996).
Test substance was administered PO (400, 200 and 100 mg/kg) to groups of 5 CD-1 (Crl.) derived male or female mice weighing 22±2 g one hour before injection of acetic acid (0.5%, 20 ml/kg IP). Reduction in the number of writhes by 50 percent or more (≧50%) per group of animals observed during the 5 to 10 minute period after acetic acid administration, relative to the vehicle-treated control group, indicates possible analgesic activity.
Test substance was administered orally to groups of 5 mice 60 minutes before injection of Acetic Acid (0.5%, 20 ml/kg IP). The number of writhing per group of animals observed during the 5 to 10 minutes period after acetic acid challenge was observed. Reduction in the number of writhings by 50 percent or more (≧50%) relative to the vehicle-treated control group indicates possible analgesic activity.
In general terms: An intraperitoneal irritant provokes the stretching counted in writhing tests.

[3] abbreviates: 100 mg/kg PO, 60 minutes before acetic acid.
Setting [4] is: 200 mg/kg PO, 60 minutes before acetic acid.
Setting [5] is: 400 mg/kg PO, 60 minutes before acetic acid.
[6] abbreviates: established arthritis, up to 10 days therapy, 3,4-DAA 200 mg/kg/day, dexamethasone 0.5 mg/kg/2 days.

As to `Nc1c(O)cccc1C(=O)O` [3-Hydroxyanthranilic acid], the “action on allodynia in CIA” value in experiment [1] (administered therapeutically at doses of up to 400 mg/kg/day) is “no action”. In addition, in the experiment on purified T cells, the IC50 is 100 µM and the T cell proliferation result is given as “dose-dependently inhibited”. Moreover, in the experiment on T-cells, the “IFN-γ production by T-cells” value is “dose-dependently reduced”, the “IL-5 production by T-cells” value was “increased” and the “IL-10 production by T-cells” value is reported as “increased”.

With `COc1ccc(/C=C/C(=O)Nc2ccccc2C(=O)O)cc1OC` [Tranilast, 2-[[3-(3,4-dimethoxyphenyl)-1-oxo-2-propenyl]amino]benzoic acid], in experiment [2] (setting [3]), the “No. of Writhing Average” value was found to be 15; the “% Inhibition” value was determined as 12%; the “No. of Writhing Individual” value was 19 and 15 and 16 and 17 and 9. Moreover, in experiment [2] (setting [4]), the “No. of Writhing Average” value is 13; the “% Inhibition” value turned out to be 24%; the “No. of Writhing Individual” value was 10 (2×) and 19 and 9 and 16. Moreover, in experiment [2] (400 mg/kg PO, 60 minutes before acetic acid (0.5%, 20 ml/kg IP), 5 to 10 minute period), the “No. of Writhing Individual” value is 3 and 16 and 2 and 10 and 14. In addition, in experiment [2] (setting [5]), the “No. of Writhing Average” value is 9 and the “% Inhibition” value is on record as 47%. For the same compound, in experiment [2] (100, 200 and 400 mg/kg PO), the “inhibition of acetic acid-induced writhing across doses” value was “dose-dependent inhibition”. Also, in experiment [1] (setting [6]), the mechanical allodynia entry is given as “abolished” and the thermal allodynia entry is on record as “abolished”. Also, in the experiment on purified T cells, the IC50 worked out at 28 µM and the T cell proliferation result is “dose-dependently inhibited”. Further, in the experiment on T-cells, the “IFN-γ production by T-cells” value was “dose-dependently reduced”, the “IL-5 production by T-cells” value was “dose-dependently inhibited” and the “IL-10 production by T-cells” value was “dose-dependently inhibited”.
